The record followed here is PubChem BioAssay AID328 (DTP/NCI, 2004).

Each structure is given as a SMILES string. Where “and” joins values, the source holds several entries; their conditions need not be identical. Equal values may be shown once. Toxic doses and inconclusive results are not listed.

This assay concerns BDF1 mice, P388 leukemia ip, median survival T/C. The assay can be described thus: NCI In Vivo Anticancer Drug Screen. Data for tumor model P388 Leukemia (intraperitoneal) in B6D2F1 (BDF1) mice. The settings on record: endpoint: median survival time, higher = longer survival. In a few lines:
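Steps: implant the tumour, treat one group with compound and another with vehicle, record survival, then divide treated by control.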

Setting [1] is: dose: 100.0 mg/kg/injection, schedule: Q04DX002 (ip), vehicle: saline with Tween-80.
The mark [2] stands for this setting: dose: 200.0 mg/kg/injection, schedule: Q04DX002 (ip), vehicle: saline with Tween-80.
The mark [3] stands for this setting: dose: 100.0 mg/kg/injection, schedule: Q01DX009 (ip), vehicle: Klucel (hydroxypropylcellulose) (HPC).
Where [4] appears, read: dose: 200.0 mg/kg/injection, schedule: Q01DX009 (ip), vehicle: Klucel (hydroxypropylcellulose) (HPC).
Setting [5] is: dose: 400.0 mg/kg/injection, schedule: Q01DX009 (ip), vehicle: Klucel (hydroxypropylcellulose) (HPC).
Where [6] appears, read: dose: 100.0 mg/kg/injection, schedule: Q04DX003 (ip), vehicle: Klucel (hydroxypropylcellulose) (HPC).
Setting [7] is: dose: 400.0 mg/kg/injection, schedule: Q04DX003 (ip), vehicle: Klucel (hydroxypropylcellulose) (HPC).
Where [8] appears, read: dose: 100.0 mg/kg/injection, schedule: Q01DX009 (ip), vehicle: saline with Tween-80.
Where [9] appears, read: dose: 200.0 mg/kg/injection, schedule: Q01DX009 (ip), vehicle: saline with Tween-80.
Where [10] appears, read: dose: 400.0 mg/kg/injection, schedule: Q01DX009 (ip), vehicle: saline with Tween-80.
[11] abbreviates: dose: 25.0 mg/kg/injection, schedule: Q01DX009 (ip), vehicle: saline with Tween-80.
Setting [12] is: dose: 50.0 mg/kg/injection, schedule: Q01DX009 (ip), vehicle: saline with Tween-80.
Where [13] appears, read: dose: 25.0 mg/kg/injection, schedule: Q04DX003 (ip), vehicle: saline with Tween-80.
[14] abbreviates: dose: 50.0 mg/kg/injection, schedule: Q01DX009 (ip), vehicle: Klucel (hydroxypropylcellulose) (HPC).
Where [15] appears, read: dose: 25.0 mg/kg/injection, schedule: Q01DX009 (ip), vehicle: Klucel (hydroxypropylcellulose) (HPC).
[16] abbreviates: dose: 100.0 mg/kg/injection, schedule: Q04DX003 (ip), vehicle: saline with Tween-80.
Setting [17] is: dose: 200.0 mg/kg/injection, schedule: Q04DX003 (ip), vehicle: saline with Tween-80.

For `CN(C)c1ccc(C(O)(Cc2cccc(C#N)c2)c2ccc(N(C)C)cc2)cc1`, the T/C reads like this: under setting [1], 95 % of control; under setting [2], 89 % of control; (dose: 400.0 mg/kg/injection, schedule: Q04DX002 (ip), vehicle: saline with Tween-80) 98 % of control.

As to `CN(CCC(=O)c1cccc2ccccc12)Cc1ccccc1`, the T/C under setting [3] was 115 % of control, the T/C under setting [4] was 100 % of control and the T/C under setting [5] was 105 % of control.

Regarding `O=C1CSC(c2ccccc2)N1` (stereo not given), the T/C under setting [3] is 103 % of control; the T/C under setting [6] is 100 % of control; the T/C under setting [4] is 103 % of control; the T/C under setting [5] is 96 % of control; the T/C under setting [7] is 96 % of control.

On to `CC(=O)OCC1OC(n2cnc3c(=S)nc[nH]c32)C(OC(C)=O)C1OC(C)=O` (stereo not given), for which the T/C is, setting by setting: under setting [8], 118 % of control; under setting [9], 109 % of control; under setting [10], 90 % of control.

Turning to `Cn1ncc2cncnc21`, the T/C runs as follows: (dose: 100.0 mg/kg/injection, schedule: Q04DX003 (ip), vehicle: alcohol) 113 % of control; (dose: 200.0 mg/kg/injection, schedule: Q04DX003 (ip), vehicle: alcohol) 95 % of control; (dose: 400.0 mg/kg/injection, schedule: Q04DX003 (ip), vehicle: alcohol) 100 % of control.

In the case of `CCc1c(CC(=O)O)c2cc(C)ccc2n1Cc1ccc(Cl)cc1`, the T/C is 104 % of control under setting [11]; 109 % of control and 118 % of control under setting [12]; 104 % of control and 109 % of control under setting [8].

Turning to `O=C(CBr)Nc1nccs1`, the T/C is 100 % of control (dose: 1.56 mg/kg/injection, schedule: Q01DX009 (ip), vehicle: saline); 95 % of control (dose: 3.12 mg/kg/injection, schedule: Q04DX003 (ip), vehicle: saline); 97 % of control (dose: 6.25 mg/kg/injection, schedule: Q01DX009 (ip), vehicle: saline); 94 % of control and 102 % of control (dose: 6.25 mg/kg/injection, schedule: Q04DX003 (ip), vehicle: saline); 90 % of control (dose: 12.5 mg/kg/injection, schedule: Q01DX009 (ip), vehicle: saline); 91 % of control and 97 % of control (dose: 12.5 mg/kg/injection, schedule: Q04DX003 (ip), vehicle: saline). In addition, the T/C (dose: 25.0 mg/kg/injection, schedule: Q01DX009 (ip), vehicle: saline) was 97 % of control; the T/C (dose: 25.0 mg/kg/injection, schedule: Q04DX003 (ip), vehicle: saline) is 91 % of control and 97 % of control and 100 % of control; the T/C (dose: 50.0 mg/kg/injection, schedule: Q01DX009 (ip), vehicle: saline) was 104 % of control.

In the case of `COc1cccc(C(=O)O)c1OS(=O)(=O)c1ccc(C)cc1`, the T/C by setting is: (dose: 25.0 mg/kg/injection, schedule: Q01DX009 (ip), vehicle: other) 108 % of control; (dose: 50.0 mg/kg/injection, schedule: Q01DX009 (ip), vehicle: other) 100 % of control; (dose: 100.0 mg/kg/injection, schedule: Q01DX009 (ip), vehicle: other) 100 % of control; (dose: 200.0 mg/kg/injection, schedule: Q01DX009 (ip), vehicle: other) 101 % of control; (dose: 400.0 mg/kg/injection, schedule: Q01DX009 (ip), vehicle: other) 103 % of control.

Consider `CC1CN1S(=O)(=O)N1CC1C` (stereo not given), for which the T/C (dose: 3.75 mg/kg/injection, schedule: Q01DX009 (ip), vehicle: saline with Tween-80) is 100 % of control; the T/C (dose: 7.5 mg/kg/injection, schedule: Q01DX009 (ip), vehicle: saline with Tween-80) is 112 % of control; the T/C (dose: 15.0 mg/kg/injection, schedule: Q01DX009 (ip), vehicle: saline with Tween-80) was 158 % of control; the T/C (dose: 16.5 mg/kg/injection, schedule: Q04DX003 (ip), vehicle: saline with Tween-80) is 113 % of control; the T/C under setting [13] is 154 % of control and 213 % of control; the T/C (dose: 30.0 mg/kg/injection, schedule: Q01DX009 (ip), vehicle: saline with Tween-80) was 258 % of control. Moreover, the T/C (dose: 37.5 mg/kg/injection, schedule: Q04DX003 (ip), vehicle: saline with Tween-80) is 204 % of control.

In the case of `C#CC[N+]1=CN(c2ccc(C)cc2)Cc2cc(C)ccc21`, the T/C (dose: 25.0 mg/kg/injection, schedule: Q04DX003 (ip), vehicle: Klucel (hydroxypropylcellulose) (HPC)) was 105 % of control; the T/C under setting [14] was 122 % of control; the T/C (dose: 50.0 mg/kg/injection, schedule: Q04DX003 (ip), vehicle: Klucel (hydroxypropylcellulose) (HPC)) was 100 % of control; the T/C under setting [3] is 122 % of control; the T/C under setting [6] was 95 % of control and 100 % of control and 109 % of control; the T/C (dose: 150.0 mg/kg/injection, schedule: Q04DX003 (ip), vehicle: Klucel (hydroxypropylcellulose) (HPC)) was 100 % of control and 110 % of control. Further, the T/C (dose: 225.0 mg/kg/injection, schedule: Q04DX003 (ip), vehicle: Klucel (hydroxypropylcellulose) (HPC)) is 110 % of control.

On to `O=C(O)CSc1ccc(NC(=O)Nc2ccccc2F)cc1`, for which the T/C by setting is: under setting [3], 105 % of control; under setting [4], 105 % of control; under setting [5], 105 % of control.

Regarding `S=c1[nH]nc(-c2ccncc2)n1C1CCCCC1`, the T/C runs as follows: (dose: 50.0 mg/kg/injection, schedule: Q04DX002 (ip), vehicle: saline with Tween-80) 96 % of control; under setting [1], 92 % of control; under setting [2], 97 % of control.

`O=c1nc(Oc2ccccc2)nc2cnccn12`: the T/C under setting [12] was 88 % of control and the T/C under setting [8] was 88 % of control.

On to `CC(C)C1(C(=O)NNC(=O)CCCc2ccc(N(CCCl)CCCl)cc2)OC2(O)CCCCCN2C1=O` (stereo not given), for which the T/C is 175 % of control (dose: 50.0 mg/kg/injection, schedule: Q04DX003 (ip), vehicle: other) and 220 % of control (dose: 100.0 mg/kg/injection, schedule: Q04DX003 (ip), vehicle: other).

On to `CCN(CC)CCOC(=O)c1ccc(NC(=O)Nc2ccc(C(=O)OCCN(CC)CC)cc2)cc1`, for which the T/C under setting [8] was 119 % of control.

With `COc1ccc(OC)c(NC(=O)Sc2c(Cl)c(Cl)nc(Cl)c2Cl)c1`, the T/C is, setting by setting: under setting [15], 123 % of control; under setting [3], 124 % of control; under setting [4], 123 % of control.

Turning to `CCCCCCCCCCCCOP(N)(=O)OCCCCCCCCCCCC`, the T/C is 103 % of control (dose: 10.0 mg/kg/injection, schedule: Q01DX009 (ip), vehicle: Klucel (hydroxypropylcellulose) (HPC)); 106 % of control (dose: 20.0 mg/kg/injection, schedule: Q01DX009 (ip), vehicle: Klucel (hydroxypropylcellulose) (HPC)); 106 % of control (dose: 40.0 mg/kg/injection, schedule: Q01DX009 (ip), vehicle: Klucel (hydroxypropylcellulose) (HPC)); 109 % of control under setting [12]; 113 % of control under setting [8]; 105 % of control under setting [6]. The T/C was 109 % of control under setting [16]; 97 % of control (dose: 200.0 mg/kg/injection, schedule: Q04DX003 (ip), vehicle: Klucel (hydroxypropylcellulose) (HPC)); 109 % of control under setting [17]; 121 % of control under setting [7].

`O=c1[nH]c(-c2ccccc2)c(-c2ccccc2)[nH]1`: the T/C was 95 % of control (dose: 12.5 mg/kg/injection, schedule: Q01DX009 (ip), vehicle: Klucel (hydroxypropylcellulose) (HPC)); 86 % of control under setting [15]; 86 % of control under setting [14].

As for `Clc1nc(Cl)c(Cl)nc1Cl`, the T/C by setting is: under setting [11], 100 % of control; under setting [13], 97 % of control; under setting [12], 97 % of control; (dose: 50.0 mg/kg/injection, schedule: Q04DX003 (ip), vehicle: saline with Tween-80) 113 % of control; under setting [8], 113 % of control; under setting [16], 108 % of control. For the same compound, the T/C under setting [9] is 113 % of control; the T/C under setting [17] was 97 % of control; the T/C under setting [10] was 106 % of control; the T/C (dose: 400.0 mg/kg/injection, schedule: Q04DX003 (ip), vehicle: saline with Tween-80) is 106 % of control.
